According to ChEMBL document CHEMBL4819019, “Design, synthesis, antibacterial activity and toxicity of novel quaternary ammonium compounds based on pyridoxine and fatty acids” (Eur J Med Chem, 2021):
Calls of active or inactive are those of the source. The calls are words filed in the database; no cut-off is given here.

Legend:
[1] = system: Staphylococcus ureilyticus; experiment: Antibacterial activity against clinical isolate Staphylococcus ureilyticus 1972 measured after 24 hrs by broth microdilution method; assay type: functional
Staphylococcus aureus [2] = experiment: Antibacterial activity against Staphylococcus aureus ATCC 29213 measured after 24 hrs by broth microdilution method; assay type: functional
Bacillus subtilis = experiment: Antibacterial activity against Bacillus subtilis 168 measured after 24 hrs by broth microdilution method; assay type: functional
Micrococcus luteus [3] = experiment: Antibacterial activity against Micrococcus luteus clinical isolate measured after 24 hrs by broth microdilution method; assay type: functional
Escherichia coli [4] = experiment: Antibacterial activity against Escherichia coli MG 1655 measured after 24 hrs by broth microdilution method; assay type: functional
Pseudomonas aeruginosa [5] = experiment: Antibacterial activity against Pseudomonas aeruginosa ATCC 27853 measured after 24 hrs by broth microdilution method; assay type: functional
[6] = Cytotoxicity against human HEK293 cells assessed as cell viability measured after 72 hrs by MTT assay; assay type: cell-based
[7] = Cytotoxicity against human mesenchymal stem cells assessed as cell viability measured after 72 hrs by MTT assay; assay type: cell-based
[8] = Cytotoxicity against human skin fibroblasts assessed as cell viability measured after 72 hrs by MTT assay; assay type: cell-based, Fibroblast
[9] = Genotoxicity in Salmonella typhimurium TA1535/pSK1002 assessed as DNA-damage activity by measuring beta-galactosidase activity at 750 ug/ml measured by SOS-chromotest relative to solvent control; assay type: toxicity; conditions: salmonella enterica subsp. enterica serovar typhimurium; dose 750 µg/ml
[10] = Genotoxicity in Salmonella typhimurium TA1535/pSK1002 assessed as DNA-damage activity by measuring beta-galactosidase activity at 150 ug/ml measured by SOS-chromotest relative to solvent control; assay type: toxicity; conditions: salmonella enterica subsp. enterica serovar typhimurium; dose 150 µg/ml
[11] = Genotoxicity in Salmonella typhimurium TA1535/pSK1002 assessed as DNA-damage activity by measuring beta-galactosidase activity at 75 ug/ml measured by SOS-chromotest relative to solvent control; assay type: toxicity; conditions: salmonella enterica subsp. enterica serovar typhimurium; dose 75 µg/ml
[12] = Genotoxicity in Salmonella typhimurium TA1535/pSK1002 assessed as DNA-damage activity by measuring beta-galactosidase activity at 15 ug/ml measured by SOS-chromotest relative to solvent control; assay type: toxicity; conditions: salmonella enterica subsp. enterica serovar typhimurium; dose 15 µg/ml
[13] = Genotoxicity in Salmonella typhimurium TA1535/pSK1002 assessed as DNA-damage activity by measuring beta-galactosidase activity at 7.5 ug/ml measured by SOS-chromotest relative to solvent control; assay type: toxicity; conditions: salmonella enterica subsp. enterica serovar typhimurium; dose 7.5 µg/ml
[14] = Genotoxicity in Salmonella typhimurium TA1535 assessed as number of revertant by Ames spot test relative to solvent control; assay type: toxicity; conditions: salmonella enterica subsp. enterica serovar typhimurium
[15] = Genotoxicity in Salmonella typhimurium TA1537 assessed as number of revertant by Ames spot test relative to solvent control; assay type: toxicity; conditions: salmonella enterica subsp. enterica serovar typhimurium
[16] = Genotoxicity in Salmonella typhimurium TA98 assessed as number of revertant by Ames spot test relative to solvent control; assay type: toxicity; conditions: salmonella enterica subsp. enterica serovar typhimurium
[17] = Genotoxicity in Salmonella typhimurium TA100 assessed as number of revertant by Ames spot test relative to solvent control; assay type: toxicity; conditions: salmonella enterica subsp. enterica serovar typhimurium
Staphylococcus aureus [18] = experiment: Antibacterial activity against clinical isolate methicillin-resistant Staphylococcus aureus 713 measured after 24 hrs by broth microdilution method; assay type: functional
Staphylococcus aureus [19] = experiment: Antibacterial activity against clinical isolate methicillin-resistant Staphylococcus aureus 983 measured after 24 hrs by broth microdilution method; assay type: functional
Staphylococcus aureus [20] = experiment: Antibacterial activity against clinical isolate methicillin-resistant Staphylococcus aureus 1053 measured after 24 hrs by broth microdilution method; assay type: functional
[21] = system: Staphylococcus intermedius; experiment: Antibacterial activity against clinical isolate methicillin-resistant Staphylococcus intermedius 1061 measured after 24 hrs by broth microdilution method; assay type: functional
Staphylococcus aureus [22] = experiment: Antibacterial activity against clinical isolate methicillin-resistant Staphylococcus aureus 1065 measured after 24 hrs by broth microdilution method; assay type: functional
Staphylococcus aureus [23] = experiment: Antibacterial activity against clinical isolate methicillin-resistant Staphylococcus aureus 1131 measured after 24 hrs by broth microdilution method; assay type: functional
[24] = system: Staphylococcus intermedius; experiment: Antibacterial activity against clinical isolate methicillin-resistant Staphylococcus intermedius 1143 measured after 24 hrs by broth microdilution method; assay type: functional
Staphylococcus aureus [25] = experiment: Antibacterial activity against clinical isolate Staphylococcus aureus 25 measured after 24 hrs by broth microdilution method; assay type: functional
Enterococcus faecalis [26] = experiment: Antibacterial activity against clinical isolate Enterococcus faecalis 23 measured after 24 hrs by broth microdilution method; assay type: functional
Enterococcus faecalis [27] = experiment: Antibacterial activity against clinical isolate Enterococcus faecalis 3063 measured after 24 hrs by broth microdilution method; assay type: functional
Acinetobacter sp. = experiment: Antibacterial activity against clinical isolate Acinetobacter sp. 3 measured after 24 hrs by broth microdilution method; assay type: functional
Pseudomonas sp. = experiment: Antibacterial activity against clinical isolate Pseudomonas sp. 5 measured after 24 hrs by broth microdilution method; assay type: functional
Klebsiella sp. = experiment: Antibacterial activity against clinical isolate Klebsiella sp. 11 measured after 24 hrs by broth microdilution method; assay type: functional
Proteus sp. = experiment: Antibacterial activity against clinical isolate Proteus sp. 17 measured after 24 hrs by broth microdilution method; assay type: functional; conditions: Proteus sp. (in: enterobacteria)
Escherichia coli [28] = experiment: Antibacterial activity against clinical isolate Escherichia coli 718 measured after 24 hrs by broth microdilution method; assay type: functional
Moraxella = experiment: Antibacterial activity against clinical isolate Moraxella 765 measured after 24 hrs by broth microdilution method; assay type: functional
Klebsiella pneumoniae = experiment: Antibacterial activity against clinical isolate Klebsiella pneumoniae 1813 measured after 24 hrs by broth microdilution method; assay type: functional
Pseudomonas aeruginosa [29] = experiment: Antibacterial activity against clinical isolate Pseudomonas aeruginosa 1945 measured after 24 hrs by broth microdilution method; assay type: functional
Serratia marcescens = experiment: Antibacterial activity against clinical isolate Serratia marcescens 1966 measured after 24 hrs by broth microdilution method; assay type: functional
Staphylococcus aureus [30] = experiment: Antibiofilm activity against biofilm-embedded Staphylococcus aureus assessed as reduction in log CFU at 1 to 32 times of MBC measured after 24 hrs by drop plate assay; assay type: functional, organism-based
Micrococcus luteus [31] = experiment: Antibiofilm activity against biofilm-embedded Micrococcus luteus assessed as reduction in log CFU at 1 to 32 times of MBC measured after 24 hrs by drop plate assay; assay type: functional, organism-based
Escherichia coli [32] = experiment: Antibiofilm activity against biofilm-embedded Escherichia coli assessed as reduction in log CFU at 1 to 32 times of MBC measured after 24 hrs by drop plate assay; assay type: functional, organism-based
Pseudomonas aeruginosa [33] = experiment: Antibiofilm activity against biofilm-embedded Pseudomonas aeruginosa assessed as reduction in log CFU at 1 to 32 times of MBC measured after 24 hrs by drop plate assay; assay type: functional, organism-based
Staphylococcus aureus [34] = experiment: Antibacterial activity against Staphylococcus aureus assessed as fold increase in MIC after 8 passages by serial dilution method; assay type: functional, organism-based; conditions: time 24.0 hrs
Escherichia coli [35] = experiment: Antibacterial activity against Escherichia coli assessed as fold increase in MIC after 4 passages by serial dilution method; assay type: functional, organism-based; conditions: time 24.0 hrs
[36] = Acute toxicity in C57BL/6CBA mouse assessed as death at 2000 mg/kg, po after 7 days; assay type: organism-based; conditions: in vivo, 168 h, time 7 day
[37] = Acute toxicity in C57BL/6CBA mouse assessed as enlarged spleen at 2000 mg/kg, po after 7 days; assay type: organism-based; conditions: in vivo, 168 h, time 7 day
[38] = Acute toxicity in C57BL/6CBA mouse assessed as pale liver at 2000 mg/kg, po after 7 days; assay type: organism-based; conditions: in vivo, 168 h, time 7 day
[39] = Acute toxicity in C57BL/6CBA mouse assessed as pale kidneys at 2000 mg/kg, po after 7 days; assay type: organism-based; conditions: in vivo, 168 h, time 7 day
[40] = Acute toxicity in po dosed C57BL/6CBA mouse measured upto 7 days; assay type: organism-based; conditions: in vivo, time <=7 day
[41] = Acute toxicity in topically treated C57BL/6CBA mouse measured upto 14 days; conditions: in vivo, topical or ocular, time <=14 day
Cell membrane [42] = experiment: Induction of cell membrane damage in Staphylococcus aureus assessed as decrease in flourescence measured for 35 mins with 5 min interval by DioC2(3) based flourescence method
Cell membrane [43] = experiment: Induction of cell membrane damage in Escherichia coli assessed as decrease in flourescence measured for 35 mins with 5 min interval by DioC2(3) based flourescence method
[44] = Acute toxicity in topically treated C57BL/6CBA mouse assessed as death measured at 2500 mg/kg treated as single topically measured after 14 days; assay type: organism-based; conditions: in vivo, topical_or_ocular, 336 h, time 14 day
[45] = Acute toxicity in C57BL/6CBA mouse assessed as necropsy measured at 2500 mg/kg treated as single topically measured after 14 days; assay type: organism-based; conditions: in vivo, topical_or_ocular, 336 h, time 14 day
[46] = Antibiofilm activity against biofilm-embedded Staphylococcus aureus/Escherichia coli assessed as reduction in viable cells upto 512 mg/L measured after 24 hrs by drop plate based dual species biofilm assay; assay type: functional, cell-based; conditions: dose mg/L <=512, time 24.0 hrs
[47] = Antibiofilm activity against biofilm-embedded Staphylococcus aureus/Pseudomonas aeruginosa assessed as reduction in viable cells upto 512 mg/L measured after 24 hrs by drop plate based dual species biofilm assay; assay type: functional, cell-based; conditions: dose mg/L <=512, time 24.0 hrs
[48] = Lipophilicity, logP of the compound; assay type: physicochemical; conditions: octanol/water

CCCCCCCCCCCC(=O)NCC[N+](C)(C)Cc1cnc(C)c2c1COC(C)(CCC)O2.[Cl-] (stereo not drawn)
MIC [1]: 64 µg/mL | MIC (Staphylococcus aureus [2]): 1 µg/mL | MIC (Bacillus subtilis): 2 µg/mL | MIC (Micrococcus luteus [3]): 2 µg/mL | MIC (Escherichia coli [4]): 4 µg/mL | MIC (Pseudomonas aeruginosa [5]): 32 µg/mL | CC50 at 72 h [6]: 0.15 µg/mL | CC50 at 72 h [7]: 1.15 µg/mL | CC50 at 72 h [8]: 1.79 µg/mL | Ratio [9]: 0.3 | Ratio [10]: 0.5 | Ratio [11]: 0.7 | Ratio [12]: 1.6 | Ratio [13]: 1.6 | Ratio [14]: 0.5 | Ratio [15]: 0.03 | Ratio [16]: 1.9 | Ratio [17]: 1.1 | MIC (Staphylococcus aureus [18]): 4 µg/mL | MIC (Staphylococcus aureus [19]): 16 µg/mL | MIC (Staphylococcus aureus [20]): 2 µg/mL | MIC [21]: 4 µg/mL | MIC (Staphylococcus aureus [22]): 2 µg/mL | MIC (Staphylococcus aureus [23]): 4 µg/mL | MIC [24]: 4 µg/mL | MIC (Staphylococcus aureus [25]): 2 µg/mL | MIC (Enterococcus faecalis [26]): 2 µg/mL | MIC (Enterococcus faecalis [27]): 2 µg/mL | MIC (Acinetobacter sp.): 32 µg/mL | MIC (Pseudomonas sp.): 32 µg/mL | MIC (Klebsiella sp.): 16 µg/mL | MIC (Proteus sp.): > 64 µg/mL | MIC (Escherichia coli [28]): 8 µg/mL | MIC (Moraxella): 16 µg/mL | MIC (Klebsiella pneumoniae): 16 µg/mL | MIC (Pseudomonas aeruginosa [29]): 64 µg/mL | MIC (Serratia marcescens): 64 µg/mL | Activity (Staphylococcus aureus [30]): Active | Activity (Micrococcus luteus [31]): Active | Activity (Escherichia coli [32]): Active | Activity (Pseudomonas aeruginosa [33]): Active | Activity (Staphylococcus aureus [34]): Active | Activity (Escherichia coli [35]): Toxic | Activity [36]: Toxic | Activity [37]: Toxic | Activity [38]: Toxic | Activity [39]: Toxic | LD50 at 168 h [40]: > 2000 mg/kg | LD50 at 336 h [41]: > 2500 mg/kg | Activity (Cell membrane [42]): Dose-Dependent Effect | Activity (Cell membrane [43]): Dose-Dependent Effect | Activity [44]: Non-Toxic | Activity [45]: Non-Toxic | Activity [46]: inactive | Activity [47]: inactive | logP [48]: 1.35

CCCCCCCCCCCCCC(=O)NCCC[N+](C)(C)Cc1ccccc1.[Cl-] [MIRAMISTIN]
MIC [1]: > 64 µg/mL | MIC (Staphylococcus aureus [2]): 2 µg/mL | MIC (Bacillus subtilis): 4 µg/mL | MIC (Micrococcus luteus [3]): 2 µg/mL | MIC (Escherichia coli [4]): 8 µg/mL | MIC (Pseudomonas aeruginosa [5]): 1 µg/mL | CC50 at 72 h [6]: 6.08 µg/mL | CC50 at 72 h [7]: 4.16 µg/mL | CC50 at 72 h [8]: 7.21 µg/mL | MIC (Staphylococcus aureus [18]): 64 µg/mL | MIC (Staphylococcus aureus [19]): > 64 µg/mL | MIC (Staphylococcus aureus [20]): 32 µg/mL | MIC [21]: 64 µg/mL | MIC (Staphylococcus aureus [22]): 32 µg/mL | MIC (Staphylococcus aureus [23]): 32 µg/mL | MIC [24]: 64 µg/mL | MIC (Staphylococcus aureus [25]): 16 µg/mL | MIC (Enterococcus faecalis [26]): 4 µg/mL | MIC (Enterococcus faecalis [27]): 16 µg/mL | MIC (Acinetobacter sp.): > 64 µg/mL | MIC (Pseudomonas sp.): > 64 µg/mL | MIC (Klebsiella sp.): > 64 µg/mL | MIC (Proteus sp.): > 64 µg/mL | MIC (Escherichia coli [28]): 64 µg/mL | MIC (Moraxella): > 64 µg/mL | MIC (Klebsiella pneumoniae): 16 µg/mL | MIC (Pseudomonas aeruginosa [29]): 64 µg/mL | MIC (Serratia marcescens): > 64 µg/mL | MIC (Staphylococcus aureus [34]): Active | MIC (Escherichia coli [35]): Active | LD50 at 168 h [40]: 1000 mg/kg | logP [48]: 2.43
